Laboratory results taken from patent publication US6992079B2, “Substituted 11-phenyl-dibenzazepine compounds useful for the treatment or prevention of diseases characterized by abnormal cell proliferation” (President Fellows of Harvard College, priority 1997, dated 2006).
Like-named read-outs stand apart in the source and are kept apart here.

Key:
SNB-19 = assay: In-Vitro Testing SRB panel: CNS Cancer; format: cell-based
[1] = tested on: A2058 metastatic melanoma; assay: Mouse xenograft tumor growth; format: in vivo, CD-1 nude mice
Method: NCI-A2058 human melanoma cell line was grown as monolayer culture in Minimum essential medium (D-MEM) supplemented with 10% fetal bovine serum (FBS), 0.1 mM non-essential amino acid, 1.0 mM sodium pyruvate, 100U/ml penicillin, 100 μg/ml streptomycin and 0.25 μg/ml amphotericin B and L-alanyl-1-glutamine (2 mM) at 37° C. in an atmosphere of 5% CO2 in air. The tumor cells were routinely subcultured twice weekly by trypsin-EDTA treatment. The cells were harvested from subconfluent logarithmically growing culture by treatment with typsin-EDTA and counted for tumor inoculation.
An acclimation period of at least 7 days were allowed between animal receipt and commence of tumor inoculation. When the female CD-1 nude mice were more than 6-7 weeks of age (20-25 g), each mouse was subcutaneously injected with 5.0×10^6 NCI-A2058 human melanoma cells in 0.1 ml of PBS solution at the right flank of the mice to induce tumor growth.

SR = assay: In-Vitro Testing SRB panel: Leukemia; format: cell-based
UACC-62 = assay: In-Vitro Testing SRB panel: Melanoma; format: cell-based
NCI/ADR-RES = assay: In-Vitro Testing SRB panel: Breast Cancer; format: cell-based
RL-60 (TS) = assay: In-Vitro Testing SRB panel: Leukemia; format: cell-based
[2] = tested on: H460 large cell lung carcinoma; assay: Mouse xenograft tumor growth; format: in vivo, CD-1 nude mice
[3] = tested on: squamous cell carcinoma (KLN-205) cells; assay: Tumor growth in murine squamous cell carcinoma model; format: in vivo, mouse; conditions: KLN-205; subcutaneous injection or oral administration of 80 mg/kg/day for 30 days
LOX IMVI = assay: In-Vitro Testing SRB panel: Melanoma; format: cell-based
SK-MEL-2 = assay: In-Vitro Testing SRB panel: Melanoma; format: cell-based
NCI-H522 = format: cell-based
K-562 = assay: In-Vitro Testing SRB panel: Leukemia; format: cell-based
[4] = tested on: NIH 3T3 mouse fibroblast cells; assay: Mitogenic assay (mitogen-induced cell proliferation); format: cell-based; conditions: Mus musculus, NIH3T3, 10 μM compound
NCI-H226 = format: cell-based
SF-295 = assay: In-Vitro Testing SRB panel: CNS Cancer; format: cell-based
NCI-H460 = format: cell-based
T-47D = assay: In-Vitro Testing SRB panel: Breast Cancer; format: cell-based
[5] = Homo sapiens, read-out: LC50 (the source's name)

## COc1ccc2c(c1)CN(C(=O)c1ccc([N+](=O)[O-])cc1)c1ccc(Cl)cc1C2c1ccccc1Cl (stereo not drawn) [Compound 30]
SNB-19; Homo sapiens, SNB-19
  GI50: 8.22 µM
SNB-19; Homo sapiens, SNB-19, read-out: LC50 (the source's name)
  CC50: > 100 µM
SNB-19; SNB-19
  TGI: >1.00E−04 Molar
SNB-19; SNB-19, Log10 concentration −4.0 Molar
  Percent Growth: 37%
SNB-19; SNB-19, Log10 concentration −5.0 Molar
  Percent Growth: 47%
SNB-19; SNB-19, Log10 concentration −6.0 Molar
  Percent Growth: 86%
SNB-19; SNB-19, Log10 concentration −7.0 Molar
  Percent Growth: 90%
SNB-19; SNB-19, Log10 concentration −8.0 Molar
  Percent Growth: 95%
[1]
  tumor growth: showed inhibition of tumor growth
SR
  TGI: >1.00E−04 Molar
SR; Homo sapiens
  GI50: 0.455 µM
SR; [5]
  CC50: > 100 µM
SR; Log10 concentration −4.0 Molar
  Percent Growth: 23%
SR; Log10 concentration −5.0 Molar
  Percent Growth: 12%
SR; Log10 concentration −6.0 Molar
  Percent Growth: 32%
SR; Log10 concentration −7.0 Molar
  Percent Growth: 85%
SR; Log10 concentration −8.0 Molar
  Percent Growth: 77%
UACC-62; Homo sapiens, UACC-62
  GI50: > 100 µM
UACC-62; Homo sapiens, UACC-62, read-out: LC50 (the source's name)
  CC50: > 100 µM
UACC-62; UACC-62
  TGI: >1.00E−04 Molar
UACC-62; UACC-62, Log10 concentration −4.0 Molar
  Percent Growth: 56%
UACC-62; UACC-62, Log10 concentration −5.0 Molar
  Percent Growth: 52%
UACC-62; UACC-62, Log10 concentration −6.0 Molar
  Percent Growth: 58%
UACC-62; UACC-62, Log10 concentration −7.0 Molar
  Percent Growth: 93%
UACC-62; UACC-62, Log10 concentration −8.0 Molar
  Percent Growth: 97%
NCI/ADR-RES
  TGI: >1.00E−04 Molar
NCI/ADR-RES; Homo sapiens
  GI50: 62.4 µM
NCI/ADR-RES; [5]
  CC50: > 100 µM
NCI/ADR-RES; Log10 concentration −4.0 Molar
  Percent Growth: 47%
NCI/ADR-RES; Log10 concentration −5.0 Molar
  Percent Growth: 61%
NCI/ADR-RES; Log10 concentration −6.0 Molar
  Percent Growth: 104%
NCI/ADR-RES; Log10 concentration −7.0 Molar
  Percent Growth: 117%
NCI/ADR-RES; Log10 concentration −8.0 Molar
  Percent Growth: 124%
RL-60 (TS); Homo sapiens
  GI50: 0.297 µM
RL-60 (TS); Homo sapiens, RL-60 (TB), read-out: LC50 (the source's name)
  CC50: > 100 µM
RL-60 (TS); RL-60 (TB)
  TGI: >1.00E−04 Molar
RL-60 (TS); RL-60 (TB), Log10 concentration −4.0 Molar
  Percent Growth: 29%
RL-60 (TS); RL-60 (TB), Log10 concentration −5.0 Molar
  Percent Growth: 22%
RL-60 (TS); RL-60 (TB), Log10 concentration −6.0 Molar
  Percent Growth: 35%
RL-60 (TS); RL-60 (TB), Log10 concentration −7.0 Molar
  Percent Growth: 64%
RL-60 (TS); RL-60 (TB), Log10 concentration −8.0 Molar
  Percent Growth: 94%
[2]
  tumor growth: showed inhibition of tumor growth
[3]
  tumor growth: significantly inhibited tumor growth
LOX IMVI
  TGI: >1.00E−04 Molar
LOX IMVI; Homo sapiens
  GI50: 4.3 µM
LOX IMVI; [5]
  CC50: > 100 µM
LOX IMVI; Log10 concentration −4.0 Molar
  Percent Growth: 35%
LOX IMVI; Log10 concentration −5.0 Molar
  Percent Growth: 26%
LOX IMVI; Log10 concentration −6.0 Molar
  Percent Growth: 91%
LOX IMVI; Log10 concentration −7.0 Molar
  Percent Growth: 103%
LOX IMVI; Log10 concentration −8.0 Molar
  Percent Growth: 98%
SK-MEL-2; Homo sapiens, SK-MEL-2
  GI50: > 100 µM
SK-MEL-2; Homo sapiens, SK-MEL-2, read-out: LC50 (the source's name)
  CC50: > 100 µM
SK-MEL-2; SK-MEL-2
  TGI: >1.00E−04 Molar
SK-MEL-2; SK-MEL-2, Log10 concentration −4.0 Molar
  Percent Growth: 71%
SK-MEL-2; SK-MEL-2, Log10 concentration −5.0 Molar
  Percent Growth: 74%
SK-MEL-2; SK-MEL-2, Log10 concentration −6.0 Molar
  Percent Growth: 95%
SK-MEL-2; SK-MEL-2, Log10 concentration −7.0 Molar
  Percent Growth: 94%
SK-MEL-2; SK-MEL-2, Log10 concentration −8.0 Molar
  Percent Growth: 102%
NCI-H522; Homo sapiens, NCI-H522
  GI50: 0.76 µM
NCI-H522; Homo sapiens, NCI-H522, read-out: LC50 (the source's name)
  CC50: > 100 µM
NCI-H522; NCI-H522
  TGI: 6.10E−05 Molar
NCI-H522; NCI-H522, Log10 concentration −4.0 Molar
  Percent Growth: −9%
NCI-H522; NCI-H522, Log10 concentration −5.0 Molar
  Percent Growth: 19%
NCI-H522; NCI-H522, Log10 concentration −6.0 Molar
  Percent Growth: 42%
NCI-H522; NCI-H522, Log10 concentration −7.0 Molar
  Percent Growth: 113%
NCI-H522; NCI-H522, Log10 concentration −8.0 Molar
  Percent Growth: 114%
K-562; Homo sapiens, K562
  GI50: 1.33 µM
K-562; Homo sapiens, K562, K-562, read-out: LC50 (the source's name)
  CC50: > 100 µM
K-562; K-562
  TGI: >1.00E−04 Molar
K-562; K-562, Log10 concentration −4.0 Molar
  Percent Growth: 17%
K-562; K-562, Log10 concentration −5.0 Molar
  Percent Growth: 24%
K-562; K-562, Log10 concentration −6.0 Molar
  Percent Growth: 54%
K-562; K-562, Log10 concentration −7.0 Molar
  Percent Growth: 86%
K-562; K-562, Log10 concentration −8.0 Molar
  Percent Growth: 99%
[4]
  inhibition at 10 µM: 99%
NCI-H226; Homo sapiens, NCI-H226
  GI50: 3.98 µM
NCI-H226; Homo sapiens, NCI-H226, read-out: LC50 (the source's name)
  CC50: > 100 µM
NCI-H226; NCI-H226
  TGI: >1.00E−04 Molar
NCI-H226; NCI-H226, Log10 concentration −4.0 Molar
  Percent Growth: 34%
NCI-H226; NCI-H226, Log10 concentration −5.0 Molar
  Percent Growth: 35%
NCI-H226; NCI-H226, Log10 concentration −6.0 Molar
  Percent Growth: 73%
NCI-H226; NCI-H226, Log10 concentration −7.0 Molar
  Percent Growth: 79%
NCI-H226; NCI-H226, Log10 concentration −8.0 Molar
  Percent Growth: 83%
SF-295; Homo sapiens, SF-295
  GI50: 6.49 µM
SF-295; Homo sapiens, SF-295, read-out: LC50 (the source's name)
  CC50: > 100 µM
SF-295; SF-295
  TGI: >1.00E−04 Molar
SF-295; SF-295, Log10 concentration −4.0 Molar
  Percent Growth: 32%
SF-295; SF-295, Log10 concentration −5.0 Molar
  Percent Growth: 41%
SF-295; SF-295, Log10 concentration −6.0 Molar
  Percent Growth: 88%
SF-295; SF-295, Log10 concentration −7.0 Molar
  Percent Growth: 104%
SF-295; SF-295, Log10 concentration −8.0 Molar
  Percent Growth: 93%
NCI-H460; Homo sapiens, NCI-H460
  GI50: 2.12 µM
NCI-H460; Homo sapiens, NCI-H460, read-out: LC50 (the source's name)
  CC50: > 100 µM
NCI-H460; NCI-H460
  TGI: >1.00E−04 Molar
NCI-H460; NCI-H460, Log10 concentration −4.0 Molar
  Percent Growth: 20%
NCI-H460; NCI-H460, Log10 concentration −5.0 Molar
  Percent Growth: 16%
NCI-H460; NCI-H460, Log10 concentration −6.0 Molar
  Percent Growth: 67%
NCI-H460; NCI-H460, Log10 concentration −7.0 Molar
  Percent Growth: 97%
NCI-H460; NCI-H460, Log10 concentration −8.0 Molar
  Percent Growth: 91%
T-47D; Homo sapiens, T47D
  GI50: 2.87 µM
T-47D; Homo sapiens, T47D, T-47D, read-out: LC50 (the source's name)
  CC50: > 100 µM
T-47D; T-47D
  TGI: >1.00E−04 Molar
T-47D; T-47D, Log10 concentration −4.0 Molar
  Percent Growth: 18%
T-47D; T-47D, Log10 concentration −5.0 Molar
  Percent Growth: 23%
T-47D; T-47D, Log10 concentration −6.0 Molar
  Percent Growth: 71%
T-47D; T-47D, Log10 concentration −7.0 Molar
  Percent Growth: 96%
T-47D; T-47D, Log10 concentration −8.0 Molar
  Percent Growth: 92%
